Marks after values point to notes of the source that are not given here.
Tested on: Immune cell subsets
Assay: Human HIV clinical protocol: immune phenotypes by flow cytometry
Type: in vivo
Conditions: for CD8+CD16+CD38+ cells, median: Baseline 8; for CD8−CD16+ cells, median: Baseline 53; for CD8+CD69+CD25− cells, median: Baseline 18; for Activated T cells (CD8+ CD69+ CD25−), median: about 1 week after last dose
Experimental: Patients infected with HIV are dosed with an i.m. injection of 25-200 mg of BrEA using a formulation containing 100 mg/mL BrEA, PEG300 ˜30% v/v, propylene glycol 30% v/v, benzyl benzoate 30% v/v and benzyl alcohol 2% v/v. The pateints are dosed once per day for 5 consecutive days followed by a period of about 28 days or longer with no BrEA treatment. The patients were them provided with one more course of 5 consecutive days of dosing with BrEA, followed by a non-dosing period of at least about 28 days. Up to 8 rounds of 5-day treatments, followed by at least 28 days of no dosing were provided. Immunological responses were then assayed using blood or plasma samples from the patients by flow cytometry and other known analytical methods. Immune cell subsets or other measured markers were assayed within 24 hours of obtaining the sample from each patient. Labeled antibodies, e.g., anti-CD antigen antibodies conjugated with fluorescent dyes (FITC, phycoerythrin, allophycocyanin or PerCP), were prepared and used essentially according to standard protocols using commercially available reagents, see, e.g., PharMingen, 1998 Research Products Catalog, technical protocols at pages 732-774, human cell surface molecules at pages 182-295 and mouse, rat and hamster cell surface molecules at pages 2-173 and cytokine and chemokine reagents at pages 344-489.
Otherwise untreated patients with CD4 counts of ≧200/μL and HIV-1 viral RNA between 5,000 and 1,000,000 copies/mL (branched-DNA, version 3.0, Bayer, Tarrytown, N.Y.) provided informed consent and were enrolled into a Phase I/II dose-escalation study of the safety and efficacy of intramuscular injections of BrEA. The protocol was conducted in South Africa. In the first cohort, four patients received an initial injection of 1 mL (50 mg), followed by a safety and pharmocokinetic study for seven days, and then received five daily injections of 1 mL (50 mg). The second cohort of 8 patients was randomized in a 1:2 ratio to receive either 50 mg (1 mL) or 100 mg (2 mL) on the same schedule. Patients were allowed at the discretion of the investigators to receive up to three additional courses each, repeated after 28 days of observation. The protocol was amended to introduce an improved formulation, and to extend the initial pharmacokinetic and safety period to 14 days, the observation period following the five daily doses to 35 days, and to allow up to 7 treatment courses. A third cohort of 24 patients was randomized in a 1:2:4 ratio to receive either 50 mg (0.5 mL), 100 mg (1 mL), or 200 mg (2 mL) of BrEA. The patients were all male, since initial safety studies are not permitted in females in South Africa. Within the group of 39 patients randomized, the ethnic demographic included was 18 Caucasian, 17 African, and 4 other. The average age was 34 (range 20-63), the average initial CD4/μL was 434 (range 176-1210), and the average viral load was 13,772 copies/mL (range 3,020-158,489). Patients underwent physical examinations and provided samples for chemistry, hematology, virology and immunology testing approximately every two weeks.
Course 1, 2 and 3 refer to each 5 consecutive day treatment regimen of one daily injection with BrEA (50 or 100 mg BrEA per injection). The formulation contained 100 mg/mL BrEA, PEG300 ˜30% v/v, propylene glycol 30% v/v, benzyl benzoate 30% v/v and benzyl alcohol 2% v/v. The data shown below was obtained from patient blood samples at baseline (on the day dosing was initiated) and at various times after the patients received at least one dose of BrEA. […] The patients in this protocol initially had CD4 counts of at least 200 per mm^3 and a serum HIV RNA load of 5,000 to 1×10^6 RNA copies/mL. […] Average CD4 IL-10 production dropped from a median of 66% to 4% of the cells, while CD4 IFNγ went from a median of 8% to 63%, leading to a Th2 to a Th1 shift in cytokine production. […]

## C[C@]12CC[C@H](O)C[C@@H]1CC[C@@H]1[C@@H]2CC[C@]2(C)C(=O)[C@H](Br)C[C@@H]12 [BrEA, 16α-bromo-3β-hydroxy-5α-androstane-17-one]
CD3+ CD8+ CD69+ CD25−, n=36, p=0.049
  Early Activation-Stage CD8+ T cells: Time-averaged AUC Increase Mean ± SEM: 67 ± 33%
CD8+ CD16+, n=36, p=0.19
  LAK: Time-averaged AUC Increase Mean ± SEM: 13 ± 9%
CD8−CD16+, n=36, p=0.20
  NK: Time-averaged AUC Increase Mean ± SEM: 29 ± 22%
Course 1, Baseline 3.2, n=10, p<0.001
  Lin− HLA-DR+ CD11c+/CD123+ cells, median: 17.7 cells/μL
Course 1, n=10, p<0.001
  CD8+CD16+CD38+ cells, median: 27 cells/μL
Course 1, n=12, p<0.001
  CD8−CD16+ cells, median: 253 cells/μL
Course 1, HIV patients, 50 or 100 mg i.m. daily ×5, n=13, p<0.001
  CD8+CD69+CD25− cells, median: 54 cells/μL
Course 2, n=4, p=0.047
  CD8+CD16+CD38+ cells, median: 28 cells/μL
Course 2, n=9, p<0.001
  CD8+CD69+CD25− cells, median: 56 cells/μL
Course 2, n=4, p=0.02
  CD8−CD16+ cells, median: 288 cells/μL
Course 2, baseline value from initiation of 2nd course = 6.4, n=5, p=0.02
  Lin− HLA-DR+ CD11c+/CD123+ cells, median: 11.4^c cells/μL
Course 3, n=4, p=0.02
  CD8+CD16+CD38+ cells, median: 25 cells/μL
Course 3, n=4, p=0.04
  CD8+CD69+CD25− cells, median: 75 cells/μL
Course 3, n=2, p=0.04
  CD8−CD16+ cells, median: 249 cells/μL
Course 3, baseline value from initiation of 2nd course = 6.4, n=4, p=0.04
  Lin− HLA-DR+ CD11c+/CD123+ cells, median: 14.7^c cells/μL
Lineage− HLA-DR+ CD11c+, n=31, p=0.010
  DC1 (CD11c+) Dendritic Cells: Time-averaged AUC Increase Mean ± SEM: 50 ± 18%
Lineage− HLA-DR+ CD123+, n=31, p=0.021
  DC2 (CD123+) Dendritic Cells: Time-averaged AUC Increase Mean ± SEM: 32 ± 13%
Treatment 1, treated, baseline 19
  Activated T cells (CD8+ CD69+ CD25−), median: 54 (n = 13, p < 0.001) cells/μL
Treatment 1, treated, baseline 3.5
  Dendritic cells (Lin− HLA-DR+ CD123+/CD11+), median: 18 (n = 10, p = 0.001) cells/μL
Treatment 1, treated, baseline 8
  LAK cells (CD8+ CD16+ CD38+), median: 27 (n = 10, p < 0.001) cells/μL
Treatment 1, treated, baseline 54
  NK (ADCC responders) cells (CD8− CD16+), median: 253 (n = 12, p < 0.001) cells/μL
Treatment 2, treated, baseline 19
  Activated T cells (CD8+ CD69+ CD25−), median: 56 (n = 9, p < 0.001) cells/μL
Treatment 2, treated, baseline 6.5
  Dendritic cells (Lin− HLA-DR+ CD123+/CD11+), median: 11.5 (n = 5, p = 0.02) cells/μL
Treatment 2, treated, baseline 12
  LAK cells (CD8+ CD16+ CD38+), median: 28 (n = 4, p = 0.04) cells/μL
Treatment 2, treated, baseline 58
  NK (ADCC responders) cells (CD8− CD16+), median: 285 (n = 4, p = 0.02) cells/μL
Treatment 3, treated, baseline 18
  Activated T cells (CD8+ CD69+ CD25−), median: 74 (n = 4, p = 0.04) cells/μL
Treatment 3, treated, baseline 6
  Dendritic cells (Lin− HLA-DR+ CD123+/CD11+), median: 55 (n = 4, p = 0.04) cells/μL
Treatment 3, treated, baseline 12
  LAK cells (CD8+ CD16+ CD38+), median: 25 (n = 4, p = 0.02) cells/μL
Treatment 3, treated, baseline 56
  NK (ADCC responders) cells (CD8− CD16+), median: 250 (n = 2, p = 0.04) cells/μL
After one course (5 daily i.m. injections), dropped from 66%
  CD4 IL-10 production, median % of the cells: 4%
After one course (5 daily i.m. injections), went from 8%
  CD4 IFNγ, median % of the cells: 63%
Analysis visit day 22
  DC1 (CD11c+) Dendritic Cells: Maximum Analysis Visit Responses Mean: 58% (22)
Analysis visit day 36
  NK: Maximum Analysis Visit Responses Mean: 41% (36)
Analysis visit day 67
  LAK: Maximum Analysis Visit Responses Mean: 34% (67)
Analysis visit day 80
  DC2 (CD123+) Dendritic Cells: Maximum Analysis Visit Responses Mean: 44% (80)
Analysis visit day 139
  Total Dendritic Cells: Maximum Analysis Visit Responses Mean: 38% (139)
Analysis visit day 153
  Early Activation-Stage CD8+ T cells: Maximum Analysis Visit Responses Mean: 162% (153)
Change from baseline, n=31
  DC1 (CD11c+) Dendritic Cells: Maximum Individual Patient Responses Mean (range): 130% (−20 to 870%)
  DC2 (CD123+) Dendritic Cells: Maximum Individual Patient Responses Mean (range): 100% (−30 to 480%)
  Total Dendritic Cells: Maximum Individual Patient Responses Mean (range): 100% (−20 to 600%)
Change from baseline, n=36
  Early Activation-Stage CD8+ T cells: Maximum Individual Patient Responses Mean (range): 210% (0 to 3,090%)
  LAK: Maximum Individual Patient Responses Mean (range): 90% (−90 to 630%)
  NK: Maximum Individual Patient Responses Mean (range): 140% (−40 to 1,220%)
i.m. BrEA, HIV patients, CD3+ CD8+ and CD69+ or CD25+, n=36, p=0.005
  Activated CD8+ T cells: Time-averaged AUC Increase Mean ± SEM: 15 ± 5%
i.m. BrEA, HIV patients, analysis visit day 22
  Activated CD8+ T cells: Maximum Analysis Visit Responses Mean: 25% (22)
i.m. BrEA, HIV patients, change from baseline, n=36
  Activated CD8+ T cells: Maximum Individual Patient Responses Mean (range): 70% (−10 to 340%)
n=31, p=0.003
  DC1 to DC2 Ratio: Time-averaged AUC Increase Mean ± SEM: 44 ± 13%
n=31, p=0.010
  Total Dendritic Cells: Time-averaged AUC Increase Mean ± SEM: 38 ± 14%

Reference: patent publication US20070275936A1, “Formulations and Treatment Methods” (priority 1998, published 2007)
